Data as given in patent US12172995B2, “Substituted indole and indazole compounds” (BRISTOL-MYERS SQUIBB COMPANY, priority 2018, dated 2024).
pIC50: −log10 of the molar value.

Assays:
Type in all cases: cell-based
human TLR7 = molecular target: T1, human TLR7 (Homo sapiens, UniProt Q9NYK1); experiment: TLR7 inhibition reporter assay (HEK-Blue SEAP); conditions: HEK-Blue cells overexpressing human TLR7, stimulated with gardiquimod 7.5 μM, 22 hour incubation
T1 construct: host or cells: HEK-Blue cells
T1 sequence (Q9NYK1 27-1049): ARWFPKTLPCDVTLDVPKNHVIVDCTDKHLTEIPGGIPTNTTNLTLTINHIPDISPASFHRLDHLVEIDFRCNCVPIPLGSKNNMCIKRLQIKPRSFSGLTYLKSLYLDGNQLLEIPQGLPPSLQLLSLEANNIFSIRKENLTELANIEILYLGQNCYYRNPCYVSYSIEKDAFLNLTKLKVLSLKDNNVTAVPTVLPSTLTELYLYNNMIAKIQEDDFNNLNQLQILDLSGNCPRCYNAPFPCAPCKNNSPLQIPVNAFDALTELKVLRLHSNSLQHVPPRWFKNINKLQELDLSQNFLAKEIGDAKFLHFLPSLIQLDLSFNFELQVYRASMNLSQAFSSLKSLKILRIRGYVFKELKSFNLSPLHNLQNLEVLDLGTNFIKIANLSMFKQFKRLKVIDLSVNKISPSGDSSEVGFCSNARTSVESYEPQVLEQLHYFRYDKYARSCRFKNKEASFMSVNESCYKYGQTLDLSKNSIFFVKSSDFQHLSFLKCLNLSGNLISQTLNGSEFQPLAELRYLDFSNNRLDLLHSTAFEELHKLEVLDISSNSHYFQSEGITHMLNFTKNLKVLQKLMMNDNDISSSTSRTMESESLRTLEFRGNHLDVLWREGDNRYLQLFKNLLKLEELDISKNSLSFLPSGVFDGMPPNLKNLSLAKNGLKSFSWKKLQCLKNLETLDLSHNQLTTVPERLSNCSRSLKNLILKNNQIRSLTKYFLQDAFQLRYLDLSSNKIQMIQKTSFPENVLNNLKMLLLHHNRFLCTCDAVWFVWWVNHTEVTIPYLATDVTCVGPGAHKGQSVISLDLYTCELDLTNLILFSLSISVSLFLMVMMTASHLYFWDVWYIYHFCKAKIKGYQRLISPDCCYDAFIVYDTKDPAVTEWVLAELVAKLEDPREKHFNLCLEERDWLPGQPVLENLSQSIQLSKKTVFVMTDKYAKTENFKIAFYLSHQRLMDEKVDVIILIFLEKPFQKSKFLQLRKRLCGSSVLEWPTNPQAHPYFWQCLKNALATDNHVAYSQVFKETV
In short: (§1)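 HEK-Blue cells overexpressing the receptor, with an NF-κB/AP-1-driven SEAP reporter, were pre-treated with compound (0.05 nM to 50 μM) for 30 min at room temperature. Stimulation used gardiquimod 7.5 μM (TLR7), R848 15.9 μM (TLR8) or ODN2006 5 nM (TLR9), followed by 22 h at 37 °C.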

human TLR9 = molecular target: T2, human TLR9 (Homo sapiens, UniProt Q9NR96); experiment: TLR9 inhibition reporter assay (HEK-Blue SEAP); conditions: HEK-Blue cells overexpressing human TLR9, stimulated with ODN2006 5 nM, 22 hour incubation
T2 construct: host or cells: HEK-Blue cells
T2 sequence (Q9NR96 26-1032): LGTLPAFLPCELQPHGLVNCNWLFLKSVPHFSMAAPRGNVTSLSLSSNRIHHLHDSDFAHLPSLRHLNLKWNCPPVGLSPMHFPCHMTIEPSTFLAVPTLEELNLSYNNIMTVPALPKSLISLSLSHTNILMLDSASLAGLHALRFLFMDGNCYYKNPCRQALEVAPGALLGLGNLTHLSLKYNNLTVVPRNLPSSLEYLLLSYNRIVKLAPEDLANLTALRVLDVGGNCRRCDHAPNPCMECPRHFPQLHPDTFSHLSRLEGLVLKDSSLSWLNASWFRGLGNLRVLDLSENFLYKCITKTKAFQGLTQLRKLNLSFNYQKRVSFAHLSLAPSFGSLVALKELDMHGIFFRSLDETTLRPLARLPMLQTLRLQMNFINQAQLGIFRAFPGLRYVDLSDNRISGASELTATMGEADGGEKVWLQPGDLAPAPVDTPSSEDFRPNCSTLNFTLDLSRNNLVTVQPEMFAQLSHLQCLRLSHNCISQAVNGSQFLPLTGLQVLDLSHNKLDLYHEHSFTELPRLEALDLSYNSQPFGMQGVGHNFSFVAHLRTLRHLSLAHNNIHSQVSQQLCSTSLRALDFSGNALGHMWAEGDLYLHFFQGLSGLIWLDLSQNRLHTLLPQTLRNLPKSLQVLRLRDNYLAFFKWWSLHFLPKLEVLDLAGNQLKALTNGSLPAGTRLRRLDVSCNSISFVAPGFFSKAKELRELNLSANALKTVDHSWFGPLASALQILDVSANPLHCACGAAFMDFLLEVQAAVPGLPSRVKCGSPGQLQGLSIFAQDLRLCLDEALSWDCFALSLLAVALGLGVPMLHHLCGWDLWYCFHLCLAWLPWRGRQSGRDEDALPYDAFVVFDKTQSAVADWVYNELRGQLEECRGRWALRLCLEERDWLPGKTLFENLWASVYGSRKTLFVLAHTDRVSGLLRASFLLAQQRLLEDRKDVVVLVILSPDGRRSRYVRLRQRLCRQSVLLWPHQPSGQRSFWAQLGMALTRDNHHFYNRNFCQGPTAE
In short: as §1

human TLR8 = molecular target: T3, human TLR8 (Homo sapiens, UniProt Q9NR97); experiment: TLR8 inhibition reporter assay (HEK-Blue SEAP); conditions: HEK-Blue cells overexpressing human TLR8, stimulated with R848 15.9 μM, 22 hour incubation
T3 construct: host or cells: HEK-Blue cells
T3 sequence (Q9NR97 27-1041): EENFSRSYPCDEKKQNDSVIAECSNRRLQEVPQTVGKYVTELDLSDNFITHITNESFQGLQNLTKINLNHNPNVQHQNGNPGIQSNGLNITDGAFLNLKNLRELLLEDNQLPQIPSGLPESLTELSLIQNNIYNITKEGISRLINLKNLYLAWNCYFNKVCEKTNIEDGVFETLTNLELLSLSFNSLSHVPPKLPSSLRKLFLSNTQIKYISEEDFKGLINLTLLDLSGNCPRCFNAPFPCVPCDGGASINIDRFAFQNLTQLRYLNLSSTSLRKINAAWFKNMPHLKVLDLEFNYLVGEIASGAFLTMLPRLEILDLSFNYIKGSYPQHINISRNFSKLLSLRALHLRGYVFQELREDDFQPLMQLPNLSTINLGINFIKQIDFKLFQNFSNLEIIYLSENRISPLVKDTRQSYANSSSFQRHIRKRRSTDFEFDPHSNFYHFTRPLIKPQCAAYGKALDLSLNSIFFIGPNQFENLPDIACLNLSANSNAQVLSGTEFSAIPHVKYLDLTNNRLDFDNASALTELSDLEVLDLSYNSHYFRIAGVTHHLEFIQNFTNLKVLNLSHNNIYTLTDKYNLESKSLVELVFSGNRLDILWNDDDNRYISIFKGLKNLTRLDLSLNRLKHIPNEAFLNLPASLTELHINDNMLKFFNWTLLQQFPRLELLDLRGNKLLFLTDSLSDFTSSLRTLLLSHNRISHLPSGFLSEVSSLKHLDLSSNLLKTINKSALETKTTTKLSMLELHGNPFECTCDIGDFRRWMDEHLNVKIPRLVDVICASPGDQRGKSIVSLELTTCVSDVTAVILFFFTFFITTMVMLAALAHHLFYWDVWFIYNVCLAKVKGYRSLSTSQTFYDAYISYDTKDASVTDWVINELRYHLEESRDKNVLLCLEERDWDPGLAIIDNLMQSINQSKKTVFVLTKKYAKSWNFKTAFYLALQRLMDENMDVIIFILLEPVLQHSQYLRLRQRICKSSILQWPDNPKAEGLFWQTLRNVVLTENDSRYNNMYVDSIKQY
In short: as §1

Row | Compound | pIC50 (human TLR7) | pIC50 (human TLR9) | pIC50 (human TLR8)
1 | COc1cc2c(C3CCNCC3)n[nH]c2cc1-c1cc(C)c2ncnn2c1 [Example 19, 6-(5-methoxy-3-(piperidin-4-yl)-1H-indazol-6-yl)-8-methyl-[1,2,4]triazolo[1,5-a]pyridine] | 7.50 | 5.75 | 7.95
2 | Cc1cc2c(C3CCN(C(=O)CN(C)C)CC3)n[nH]c2cc1-c1cc(C)c2ncnn2c1 [Example 20, 2-(dimethylamino)-1-(4-(5-methyl-6-(8-methyl-[1,2,4]triazolo[1,5-a]pyridin-6-yl)-1H-indazol-3-yl)piperidin-1-yl)ethan-1-one] | 7.61 | 5.35 | 8.42
3 | Cc1cc2c(C3CCN(C4CCOCC4)CC3)n[nH]c2cc1-c1cc(C)c2ncnn2c1 [Example 21, 8-methyl-6-(5-methyl-3-(1-(tetrahydro-2H-pyran-4-yl)piperidin-4-yl)-1H-indazol-6-yl)-[1,2,4]triazolo[1,5-a]pyridine] | 7.58 | 5.34 | 9.15
4 | CCCN1CCC(c2n[nH]c3cc(-c4cc(C)c5ncnn5c4)c(C)cc23)CC1 [Example 22, 8-methyl-6-(5-methyl-3-(1-propylpiperidin-4-yl)-1H-indazol-6-yl)-[1,2,4]triazolo[1,5-a]pyridine] | 7.75 | 5.50 | 9.10
5 | Cc1cc2c(C3CCN(CC(=O)N(C)C)CC3)n[nH]c2cc1-c1cc(C)c2ncnn2c1 [Example 23, N,N-dimethyl-2-(4-(5-methyl-6-(8-methyl-[1,2,4]triazolo[1,5-a]pyridin-6-yl)-1H-indazol-3-yl)piperidin-1-yl)acetamide] | 7.36 | 5.18 | 8.54
6 | Cc1cc2c(C3CCCNC3)n[nH]c2cc1-c1cc(C)c2ncnn2c1 (stereo not drawn) [Example 24, 8-methyl-6-(5-methyl-3-(piperidin-3-yl)-1H-indazol-6-yl)-[1,2,4]triazolo[1,5-a]pyridine] | 7.80 | 6.06 | 8.96
7 | Cc1cc2c(C3CCNCC3)n[nH]c2cc1-c1cc(C)c(=O)n(C)c1 [Example 25, 1,3-dimethyl-5-(5-methyl-3-(piperidin-4-yl)-1H-indazol-6-yl)pyridin-2(1H)-one] | 6.58 | 5.65 | 7.98
8 | Cc1cc2c(C3CCNC3)n[nH]c2cc1-c1cc(C)c2ncnn2c1 (stereo not drawn) [Example 26, 8-methyl-6-(5-methyl-3-(pyrrolidin-3-yl)-1H-indazol-6-yl)-[1,2,4]triazolo[1,5-a]pyridine] | 7.73 | 5.88 | 8.82
9 | Cc1cc(-c2cc(C)c3ncnn3c2)cc2[nH]nc(C3CCNCC3)c12 [Example 27, 8-methyl-6-(4-methyl-3-(piperidin-4-yl)-1H-indazol-6-yl)-[1,2,4]triazolo[1,5-a]pyridine] | 8.18 | 6.19 | 7.59
10 | Cc1cc2c(C3CCC(NCCS(C)(=O)=O)CC3)n[nH]c2cc1-c1cc(C)c2ncnn2c1 (stereo not drawn) [Example 30, 4-(5-methyl-6-(8-methyl-[1,2,4]triazolo[1,5-a]pyridin-6-yl)-1H-indazol-3-yl)-N-(2-(methylsulfonyl)ethyl) cyclohexan-1-amine] | 7.82 | 5.17 | 9.40
11 | Cc1cc2c(C3CCC(NCCS(C)(=O)=O)CC3)n[nH]c2cc1-c1cc(C)c2ncnn2c1 (stereo not drawn) [Example 31, 4-(5-methyl-6-(8-methyl-[1,2,4]triazolo[1,5-a]pyridin-6-yl)-1H-indazol-3-yl)-N-(2-(methylsulfonyl)ethyl)cyclohexan-1-amine] | 7.40 | 5.21 | 9.22
12 | Cc1cc2c(C3CCC(NC4CC4)CC3)n[nH]c2cc1-c1cc(C)c2ncnn2c1 (stereo not drawn) [Example 36, N-cyclopropyl-4-(5-methyl-6-(8-methyl-[1,2,4]triazolo[1,5-a]pyridin-6-yl)-1H-indazol-3-yl) cyclohexan-1-amine] | 8.15 | 5.48 | 9.70
13 | Cc1cc2c(C3CCC(NC4CC4)CC3)n[nH]c2cc1-c1cc(C)c2ncnn2c1 (stereo not drawn) [Example 37, N-cyclopropyl-4-(5-methyl-6-(8-methyl-[1,2,4]triazolo[1,5-a]pyridin-6-yl)-1H-indazol-3-yl)cyclohexan-1-amine] | 7.91 | 5.29 | 9.40
14 | Cc1cc2c(C3CCCN(C(=O)CN(C)C)C3)n[nH]c2cc1-c1cc(C)c2ncnn2c1 (stereo not drawn) [Example 40, 2-(dimethylamino)-1-(3-(5-methyl-6-(8-methyl-[1,2,4]triazolo[1,5-a]pyridin-6-yl)-1H-indazol-3-yl)piperidin-1-yl)ethan-1-one] | 7.63 | 4.88 | 8.34
15 | Cc1cc2c(C3CCCN(CC(=O)N(C)C)C3)n[nH]c2cc1-c1cc(C)c2ncnn2c1 (stereo not drawn) [Example 41, N,N-dimethyl-2-(3-(5-methyl-6-(8-methyl-[1,2,4]triazolo[1,5-a]pyridin-6-yl)-1H-indazol-3-yl)piperidin-1-yl) acetamide] | 7.70 | 5.14 | 8.72
